Results on 3 compounds are retold here after patent publication US20170281799A1, “SYSTEMS AND METHODS FOR SCREENING OTOTOXIC, OTOPROTECTIVE, AND OTOREGENERATIVE COMPOUNDS USING AQUATIC MODELS” (ARIZONA BOARD OF REGENTS ON BEHALF OF THE UNIVERSITY OF …, priority 2014, published 2017).

“Also recorded” adds a separate entry of the source.

In data set [1] the test system is zebrafish. Kind of data set: Rheotaxis behavior with next generation video imaging and semi-automated image analysis. The data set is classed as in vivo, Danio rerio. The source says: Sulforaphane, a naturally occurring molecule within the isothiocyanate group of organosulfur compounds, is present within cruciferous vegetables such as broccoli. Low doses of SF induce production of antioxidant enzymes such as glutathione transferases, UDP-glucuronyltransferase, NAD(P)H:quinone oxidoreductase I and heme oxygenase-1 (HO-1) via NRF2 mediated activation of ARE promoters upstream from their genes—thereby allowing a diverse array of electrophilic and oxidative toxicants to be eliminated in a coordinated manner. Four-and-half dpf larvae were incubated in sulforaphane at a concentration of 10 μM for 12 hours and subsequently incubated for 4 hours in 1000 μM cisplatin (SF10/Cis 1000). An SF-alone (SF10/Cis 0) group and DMSO vehicle controls (DMSO/Cis 1000; DMSO/Cis 0) were also tested. To assess the otoprotective effects of SF on hair cell anatomy, aggregate neuromast damages were determined for each treatment group.

Data set [2] has as its system lateral line hair cells. The data set is described as follows: Anatomical assay: YO-PRO1 staining, aggregate neuromast damage score. The conditions noted are these: for Anatomical Assay Damage Score (Mean ± S.D.): score 0-21 per fish. On the procedure: Following the drug exposure (see below for detailed methods), larvae were fluorescently stained/labeled in embryo medium containing 6 μM YO-PRO1 (Invitrogen; Y3603) for 20 min. YO-PRO1 is a common vital dye used for staining viable lateral line hair cells in zebrafish (Coffin A B, et al., Zebrafish. 2010 March; 7(1):3-11; Ou H C, et al., Drug Discov Today. 2010 April; 15(7-8):265-71; Ou H C, et al., Hear Res. 2007 November; 233(1-2):46-53; Santos F, et al., Hear Res. 2006 March; 213(1-2):25-33). Concentration and duration were optimized for this purpose. After labeling, the larvae were rinsed three times in embryo media and then anesthetized using 0.5 mM of MS-222 (Tricaine Methanesulfonate, Western Chemical Inc.) (Buck L M, et al., Hear Res. 2012 February; 284(1-2):67-81). The larvae were fixed in 2% paraformaldehyde for 1 hour at room temperature and stored in PBS overnight at 4° C. Fixed larvae were then mounted in 6% methylcellulose (Sigma; M7140) in 0.2 mm silicone chambers and covered with No. 1.5 cover glass (Warner Instruments; 64-0718) for confocal microscopy. Larvae were observed under a confocal microscope (Leica SP5) using 20× dry and 40× oil immersion lenses.
Treatment groups consisted of 3-7 fish. Seven ventral neuromasts of the posterior lateral line (P3, P4, P5, P6, P7, P8, and P9) were selected for determination of the “neuromast damage score” per fish (FIG. 1). Each neuromast was scored from 0 to 3. A score of 0 represents no damage with normal staining; 1 represents mild damage with moderate staining; 2 represents severe damage with poor staining; 3 represents total hair cell/neuromast destruction with no staining (FIG. 2). Seven scores per fish were then added to generate the total “aggregate neuromast damage score.” The lowest possible score for an individual fish is 0, representing no damage, with the highest possible score for a fish being 21, representing complete damage. Separate individuals (scorer A, B and C) were trained in the counting technique and “neuromast damage scores” were generated independently with blinding of experimental conditions to insure unbiased assessment. The mean score of the three evaluators was used to determine the final “neuromast damage score.” Inter-scorer variation was validated by using the Pearson's correlation coefficient.
In order to establish the sensitivity of the newly developed behavior assay for detecting damage caused by varying doses of cisplatin, a cisplatin dose-dependent exposure experiment was prepared. Cisplatin solutions were prepared from powder (Sigma; P4394) in embryo medium. Five dpf larvae were incubated in cisplatin at concentrations of 0, 250, 500, 750, or 1000 μM (Cis 0, Cis 250, Cis 500, Cis 750, and Cis 1000, respectively) for 4 hours at room temperature or 28±0.5° C. then rinsed 3 times in embryo media.
In order to assess the effect of dexamethasone on cisplatin-induced ototoxicity using the behavior/anatomical assay technique, dexamethasone pre-exposure groups were prepared. Dexamethasone (Sigma; D4902) stock solution (25 mg/ml) was prepared with DMSO (Dimethyl Sulphoxide, Sigma; D2650) and diluted with embryo medium. Four-and-half dpf larvae were incubated in dexamethasone at a concentration of 5 μM for 12 hours at 28.5±0.5° C. and subsequently rinsed in embryo media. Four-and-half dpf fish were used to allow for a half-day of maturation to ensure all fish would be 5 dpf at time of behavioral/anatomical testing. […]

The subject of data set [3] is zebrafish. The data set is described as follows: Behavioral assay: rheotaxis in swimming test apparatus. The data set is classed as in vivo, Danio rerio. The source says:
The custom-built behavioral apparatus consists of 6 experimental lanes with laminar flow velocity controlled at 0.15 cm/sec, allowing the simultaneous testing of up to 6 differing experimental conditions. Each lane measures 10.2 cm in height×9.9 cm in width×25.4 cm in length. Lanes are partitioned with metal mesh dividers to contain fish in one central area, measuring 5.0 cm length×9.9 cm width, allowing for image capture (FIG. 3). E2 medium flows from a header tank through the experimental lanes to a media reserve tank and is then recycled via pump back to the header tank. The pump is used to overdrive a header standpipe, resulting in constant pressure that is split evenly between the lanes, controlling the flow. A heater located in the reserve media tank maintains temperature at 28±0.5° C. Total system volume capacity (experimental apparatus+header and reserve tanks) is approximately 210 L, while operating volume is 152 L. The flow is calibrated as follows: lane width (9.9 cm)×total number of lanes (6)×operational water height (5.8 cm)×desired flow (0.15 cm/sec)=flow rate of 51.7 cubic centimeters/seconds. Water traveling from experimental lanes to the reserve media tank is received in a 1000 mL beaker and the rate of water flow is adjusted until it takes 19.3 seconds to fill the beaker to 1000 mL. Flow speed is calibrated before every experiment. With the system calibrated, flow may then be turned on or off via a separate valve, without any further adjustments.
The experimental system is housed in a cabinet creating a condition free of ambient light, thus negating any influence of visual input on zebrafish swimming behavior. Infrared light provides lighting from which images were acquired. Video capture is accomplished with under-mounted Samsung SCB-200 high-resolution video cameras (FIG. 3). In conducting the assay, five-day post fertilization (5 dpf) zebrafish are treated with several different experimental conditions (see below for detailed methods), rinsed three times in embryo medium, transferred to the experimental lanes, and the cabinet is then closed for 30 minutes to allow for dark adaptation. Image acquisition begins with 2 minutes of filming under no-flow conditions, next the water flow is turned on and the fish are allowed 1 minute to acclimate to the flow and then 2 minutes of flow behavior is recorded (FIG. 4).
Rheotaxis was defined as fish oriented headfirst, with an axial alignment within 30 degrees on either side of the directional flow vector and attempting to swim into the current. […] From the still images, the angle of every fish was measured using ImageJ and placed into an Excel spreadsheet for data processing (FIG. 6). […] Therefore, there were no negative values or angles measured between 181-360 degrees. […]

[4] abbreviates: dexamethasone 5 μM 12 hours alone, no cisplatin.
Where [5] appears, read: dexamethasone 5 μM pre-exposure 12 hours, then cisplatin 1000 μM 4 hours.

`C[S+]([O-])CCCCN=C=S` (centres unmarked) [sulforaphane]: the “effect of pre-exposure on rheotaxis after cisplatin (in words)” value in data set [1] (SF10/Cis 1000) was “dramatically improved the ability of fish to perform rheotaxis”. Further, in data set [2] (SF10/Cis 0: 10 μM, 12 hours), the “hair cell damage caused by sulforaphane alone (in words)” value is listed as “caused no hair cell damage”. The “rescue of hair cell architecture against cisplatin (in words)” value in data set [2] (SF10/Cis 1000: 10 μM 12 hours, then 1000 μM cisplatin 4 hours) was “partial rescue of hair cell architecture”.

In the case of `N.N.[Cl][Pt][Cl]` [Cis, cisplatin], the “rheotaxis performance versus cisplatin dosage (in words)” value in data set [3] (in vivo) is “clear linear correlation was found between increasing cisplatin dosage and decreased rheotaxis performance”. Also, the rheotaxis index in data set [1] (cisplatin 1000 μM, new image analysis techniques, controls >85%) is reported as 45%.

Take `C[C@@H]1C[C@H]2[C@@H]3CCC4=CC(=O)C=C[C@]4(C)[C@@]3(F)[C@@H](O)C[C@]2(C)[C@@]1(O)C(=O)CO` [Dex, dexamethasone]: the “damage by dexamethasone-alone treatment, rheotaxis (in words)” value in data set [3] (Dex 5/Cis 0) is “No damage was induced”. In addition, the entries for the “Behavioral Assay Rheotaxia Index (%) (Mean ± S.D.)” value in data set [3] (setting [4]) and in data set [3] (setting [5]) were 35.6 ± 12.5% and 25.5 ± 5.2%, respectively. For the same compound, in data set [2] (Dex 5/Cis 0), the “hair cell damage caused by dexamethasone alone (in words)” value is “no hair cell damage; also recorded: no statistically significant difference between Cis 0 and Dex 5/Cis 0”. For the same compound, the “Anatomical Assay Damage Score (Mean ± S.D.)” value was 2.40 ± 0.64 in data set [2] (setting [4]) and 5.20 ± 1.53 in data set [2] (setting [5]).
